Test results reported in patent US10993916B2, “Crystalline microparticles of a beta-agonist coated with a fatty acid” (Chiesi Farmaceutici S.p.A., priority 2011, dated 2021).

Experiments:
Type in all cases: physicochemical
[1] = Aerosol performances of the pMDI formulations of formoterol fumarate microparticles (Next Generation Impactor); settings: pMDI suspension in HFA134a, nominal dose 12 μg, mean±S.D.
Protocol: To prepare pMDI aerosol suspension formulations with a nominal dose of the active ingredient of 12 μg, the aluminum canisters were filled in a controlled atmosphere room, by successively introducing 2.4 mg the microparticles of Example 1 and then 10 ml pressurized HFA134a gas. The devices were fitted with a 50 μl APTAR valve and a Bespak actuator of 0.3 mm. For comparative purposes, a pMDI aerosol suspension formulations comprising micronized formoterol fumarate dihydrate was also prepared. The sedimentation rate was determined using a Turbiscan apparatus (Formulaction SA, France).
(§1) The pMDI formulations were also characterized in terms of aerosol performances. They were assessed using a Next Generation Impactor to according to the procedure described in the European Pharmacopoeia 7th edition, 2011, part 2.9.18.
(§2) Quantification of formoterol fumarate dihydrate (FF) was performed using a HPLC method. The following parameters were determined: • i) delivered dose (DD) is calculated from the cumulative deposition in the […], divided by the number of actuations per experiment; • ii) fine particle mass (FPM) is obtained by interpolation of the cumulative percentage undersize of drug mass deposition versus cut off diameter. The FPM corresponds to particles of diameter ≤5.0 microns, divided by the number of actuations per experiment. • iii) respirable fraction (fine particle fraction=FPF) which is the percent ratio between the fine particle mass and the delivered dose. • iv) mass median aerodynamic diameter (MMAD) which is the diameter around which the mass aerodynamic diameters of the emitted particles are distributed equally;

[2] = Aerosol performances of the powder formulations (Next Generation Impactor, RS01/7 inhaler); settings: dry powder with alpha-lactose monohydrate carrier, 6 μg drug to 10 mg carrier, mean±S.D.
Protocol: To prepare powder formulations, the microparticles of Example 1 FF-myr 0.5 and Ff-myr 2.0 were mixed in a Turbula mixer with alpha-lactose monohydrate having a mass diameter comprised between 90 and 150 μm as a carrier, to obtain a ratio of 6 μg of drug to 10 mg of carrier. […] Each powder was filled in hard HMPC gelatine capsules, in turn loaded in a RS01/7 unit dose inhaler (Plastiape, Italy).
The aerosol performances were evaluated using a Next Generation Impactor (NGI) according to the procedure described in European Pharmacopoeia 7th edition, 2011, part 2.9.18, pages 281-285. The results (mean±S.D.) in terms of delivered dose (DD), fine particle mass (FPM), fine particle fraction (FPF) and mass median aerodynamic diameter (MMAD), are reported in Table 3.

[3] = Aerosol performances of the pMDI formulations of salmeterol xinafoate microparticles (Next Generation Impactor); settings: pMDI suspension in HFA134a, FEP-coated canisters, nominal dose 25 μg, mean±S.D.
Protocol: as §1, §2
To prepare pMDI aerosol suspension formulations with a nominal dose of the active ingredient of 25 μg, canisters coated with FEP were filled in a controlled atmosphere room, by successively introducing 3.0 mg the microparticles of Example 5 and then 6 ml pressurized HFA134a gas. The devices were fitted with a 50 μl APTAR valve and a Bespak actuator of 0.3 mm. For comparative purposes, a pMDI aerosol suspension formulations comprising micronized salmeterol xinafoate was also prepared. The pMDI formulations were characterized in terms of aerosol performances. They were assessed as described in Example 3.

Structure (SMILES)	DD (delivered dose) [1] [µg]	FPF (fine particle fraction, respirable fraction) [1] [%]	FPM (fine particle mass, ≤5.0 microns) [1] [µg]	MMAD (mass median aerodynamic diameter) [1] [μm]	DD (delivered dose) [2] [µg]	FPF (fine particle fraction) [2] [%]	FPM (fine particle mass) [2] [µg]	MMAD (mass median aerodynamic diameter) [2] [μm]	DD (delivered dose) [3] [µg]	FPF (fine particle fraction) [3] [%]	FPM (fine particle mass) [3] [µg]	MMAD (mass median aerodynamic diameter) [3] [μm]
COc1ccc(CC(C)NCC(O)c2ccc(O)c(NC=O)c2)cc1.COc1ccc(CC(C)NCC(O)c2ccc(O)c(NC=O)c2)cc1.O.O.O=C(O)/C=C/C(=O)O (stereo not drawn) [FF raw material, formoterol fumarate dihydrate]	8.34 ± 0.32	81.9 ± 2.9	6.84 ± 0.51	1.92 ± 0.00	73 ± 0.02	14.03 ± 0.82	0.71 ± 0.04	2.36 ± 0.05	–	–	–	–
OCc1cc(C(O)CNCCCCCCOCCCCc2ccccc2)ccc1O (stereo not drawn) [SX raw, salmeterol xinafoate]	–	–	–	–	–	–	–	–	14.28 ± 1.72	29.74 ± 1.75	4.23 ± 0.25	2.79 ± 0.39
